Experimental findings from patent US4618682A, “2-amino-4,5-dihydro-1H-imidazole-1-carboxanilides” (McNeilab, Inc., priority 1985, dated 1986) are described below.

For data set [1], the system named is Spontaneously hypertensive rat. As to the kind of experiment: Rodent Antihypertensive Screen (arterial pressure and heart rate, aortic cannula). The format is in vivo, adult spontaneously hypertensive rats (Charles River). Particulars: for Duration / Effect on heart rate / Max. decr. in MAP: 35 mg/kg p.o., spontaneously hypertensive rat; for antihypertensive activity compared with corresponding rearranged N-aryl-N'-(4,5-dihydro-1H-imidazol-2-yl) ureas IV: versus corresponding ureas IV. The text has this: This test evaluates compounds for effects on arterial pressure and heart rate. In this test, the arterial pressure of adult spontaneously hypertensive rats (Charles River) is monitored directly via an aortic cannula. Rats are anesthetized with an inhalation anesthetic (methoxyflurane). The left carotid artery is isolated and cannulated. The tip of the cannula is advanced to the aorta and the cannula is exteriorized behind the neck at the level of the scapula. Animals are placed in individual cages and allowed to recover from the anesthetic and are kept unrestrained. The arterial cannula is connected to the pressure transducer which is attached to the recorder. Heart rate is determined from the arterial pressure recording. The test compounds are administered either orally (p.o.) by gavage or by intraperitoneal (i.p.) injection. The arterial pressure and heart rate are monitored for a minumum of 24 hours. A test compound is considered to be active as an antihypertensive agent if the mean arterial pressure (MAP) indicates a fall of >15 mm of Hg. Each animal serves as his own control. The results of this test employing at least 3 rats per dose level for each compound and performed with various compounds of the present invention are shown in Table I.

For data set [2], the system named is Gastric fistula rat. As to the kind of experiment: acute gastric fistula rat test (antisecretory screen). The format is in vivo, Female Sprague-Dawley rats. Particulars: for inhibition in vivo at 20 mg/kg: intraduodenal, 20 mg/kg I.D., read-out: % Inhibition of gastric secretion; for ED50: po, 1 hr. How it is done: The principal antisecretory screen is the acute gastric fistula rat test which is carried out as follows: Female Sprague-Dawley rats are used for this study. The weights range from 125-250 gms; however, weights in any given test have a range of ±20 gms. The rats are fasted 24 hours before testing, water is given ad lib. At the time of fasting, the rats are placed in individual cages with wide mesh bottoms. This eliminates the problem of cannibalism and coprophagia. On the day of testing, the rats are weighed beforehand to determine the weight range and to allow for even distribution. Surgery is carried out under light ether anesthesia. As soon as the rat is anesthetized, its teeth are removed using a small pinch pliers. A midline incision is made on the abdomen about 11/2 cm long and the stomach is exposed. If, at this point, the stomach is filled with food or fecal material, the rat is discarded except for orally administered rats. In this case, the stomach contents are gently squeezed into the duodenum. Using a 4-0 polyester fiber suture, a purse string stitch is placed on the fundic portion of the stomach taking care to avoid any blood vessels in the area. A small nick is made into the stomach in the center of the purse string and a cannula, consisting of a small vinyl tube with a flange on one end, is put into the stomach and the purse string is closed tightly around the flange. Immediately following this, the rat is dosed intraduodenally using a volume of 0.5 ml per 100 gm body weight. The abdominal wall and skin are closed simultaneously with three to four 18 mm wound clips. The rat is then placed in a box containing a longitudinal slit which allows the cannula to hang freely and the rat is able to move about unencumbered. At the completion of the procedure, the time is marked 0 minutes. The rat is allowed to stabilize for 30 minutes, at which time the collection tube is discarded and replaced with a clean collection tube to receive the gastric juice. Only a one-hour collection is made for a screening study. In evaluation studies, one- and two-hour collections are made. At the end of the study, the cannula is pulled out and the rat is sacrificed. The gastric contents collected are drained into a centrifuge tube and centrifuged to pack down the sediment. The volume is read and a 1 ml aliquot of the supernatant is put into a beaker containing distilled water and titrated to pH 7 using 0.01 N NaOH. Mean values are determined for volume, titratable acid and total acid output where volume equals total ml of gastric juice minus sediment, titratable acid (mEq/1) equals amount of 0.01 N NaOH needed to titrate the acid to pH 7 times 10 and total acid output equals titratable acid times volume. Results are reported in percent inhibition over control values. In studies using oral administration, the drugs are dosed in a volume of 1 ml per 100 gm body weight one hour before surgery (pretreatment equals 90 minutes). In subcutaneous studies, the drug may be given immediately after the surgical procedure (pretreatment equals 30 minutes) or after the 30-minute stabilization period when the collection tube is changed (pretreatment time equals 0 minutes). The volume used in subcutaneous studies is 0.2 ml per 100 gm body weight.

Data set [3] is described as follows: heat sensitivity of isolated salt. It is filed as physicochemical. How it is done:
Maintained a temperature of -10° to -13° C. throughout the addition and stirred at -10° to -15° for 3 more hours. Stored the reaction mixture in the refrigerator at +4° C. overnight. Allowed to warm to +10° C. then placed in ice/ H2 O bath and acidified to pH<3 with 10% HCl. Added to 1400 ml of ice/H2 O and stirred. Filtered some insoluble material and the filtrate basified with solid K2 CO3 (keep cold!) to pH 8-9. Filtered the resulting white solid, the free base of the product. Immediately suspended in 200 ml of MeOH and dissolved by addition of ethereal HCl to pH<3. The solvent and excess HCl were removed in vacuo to yield the crude product, a white solid. The free base was regenerated again as above and converted to the hydrochloride as before. […] 210°--212° C.

Counter-ions that a name gives are not always drawn.

For the compound `NC1=NCCN1C(=O)Nc1ccc(Cl)cc1` [Example 27, 2-Amino-N-(4-chlorophenyl)-4,5-dihydro-1H-imidazole-1-carboxamide Monohydrochloride Hydrate (17:1)], in data set [1], the Duration worked out at 15 h, the “Effect on heart rate” value is -66 beats/min, the “Max. decr. in MAP” value is listed as 41 mm Hg and the “antihypertensive activity compared with corresponding rearranged N-aryl-N'-(4,5-dihydro-1H-imidazol-2-yl) ureas IV” value is “more potent antihypertensive activity”. In data set [2], the inhibition in vivo at 20 mg/kg came out at 95% and the 50% effect level (ED50) was put at a dose of 29.3 mg/kg.
Regarding `NC1=NCCN1C(=O)Nc1cccc(C(F)(F)F)c1` [Example 26, 2-Amino-4,5-dihydro-N-(3-trifluoromethylphenyl)-1H-imidazole-1-carboxamide Monohydrochloride Hemihydrate], in data set [1], the Duration turned out to be 2.0 h, the “Effect on heart rate” value was -71 beats/min and the “Max. decr. in MAP” value was determined as 24 mm Hg. Besides, the inhibition in vivo at 20 mg/kg in data set [2] amounted to 99%.
Consider `Cl.NC1=NCCN1C(=O)Nc1c(Cl)cc(Cl)cc1Cl` [Example 12, 2-Amino-4,5-dihydro-N-(2,4,6-trichlorophenyl)-1H-imidazole-1-carboxamide Monohydrochloride], for which, in data set [1], the Duration stood at 0.5 h, the “Effect on heart rate” value is given as -39 beats/min and the “Max. decr. in MAP” value amounted to 18 mm Hg. In addition, the inhibition in vivo at 20 mg/kg in data set [2] stood at 97%.
Regarding `Cc1ccc(NC(=O)N2CCN=C2N)cc1` [Example 2, 2-Amino-4,5-dihydro-N-(4-methylphenyl)-1H-imidizole-1-carboxamide Monohydrochloride Hydrate (4:1)], in data set [1], the Duration is 6.0 h, the “Effect on heart rate” value is -162 beats/min, the “Max. decr. in MAP” value stood at 54 mm Hg and the “antihypertensive activity compared with corresponding rearranged N-aryl-N'-(4,5-dihydro-1H-imidazol-2-yl) ureas IV” value is given as “more potent antihypertensive activity”. Besides, in data set [2], the inhibition in vivo at 20 mg/kg was 99% and the ED50 is 4.6 mg/kg.
For the compound `Cl.NC1=NCCN1C(=O)Nc1cccc(Cl)c1.O` [Example 11, 2-Amino-N-(3-chlorophenyl)-4,5-dihydro-1H-imidazole-1carboxamide Monohydrochloride Monohydrate], in data set [1], the Duration was 0.5 h, the “Effect on heart rate” value is given as -26 beats/min and the “Max. decr. in MAP” value turned out to be 20 mm Hg. Besides, in data set [2], the inhibition in vivo at 20 mg/kg was 77% and the ED50 came to 14.2 mg/kg.
In the case of `Cl.NC1=NCCN1C(=O)Nc1cccc(Cl)c1Cl` [Example 10, 2-Amino-N-(2,3-dichlorophenyl)-4,5-dihydro-1H-imidazole-1-carboxamide Monohydrochloride], in data set [1], the Duration is 1.0 h, the “Effect on heart rate” value is given as -66 beats/min and the “Max. decr. in MAP” value is reported as 19 mm Hg. In addition, in data set [2], the inhibition in vivo at 20 mg/kg was determined as 70%.
Turning to `Cl.NC1=NCCN1C(=O)Nc1c(Cl)cccc1Cl` [Example 1, 2-Amino-N-(2,6-dichlorophenyl)-4,5-dihydro-1H-imidazole-1-carboxamide Monohydrochloride], in data set [1], the Duration was determined as 0.5 h, the “Effect on heart rate” value is recorded as -48 beats/min, the “Max. decr. in MAP” value is 32 mm Hg and the “antihypertensive activity compared with corresponding rearranged N-aryl-N'-(4,5-dihydro-1H-imidazol-2-yl) ureas IV” value is “significantly less antihypertensive activity”. In addition, the inhibition in vivo at 20 mg/kg in data set [2] was 62%.
Turning to `Cl.NC1=NCCN1C(=O)Nc1ccc(Cl)cc1Cl` [Example 9, 2-Amino-N-(2,4-dichlorophenyl)-4,5-dihydro-1H-imidazole-1carboxamide Monohydrochloride], in data set [1], the Duration was determined as 2.0 h, the “Effect on heart rate” value is -49 beats/min and the “Max. decr. in MAP” value is reported as 33 mm Hg. In data set [2], the inhibition in vivo at 20 mg/kg was determined as 71% and the 50% effective dose (ED50) amounted to 14.8 mg/kg.
For `Cl.NC1=NCCN1C(=O)Nc1ccc(C(F)(F)F)cc1` [Example 14, 2-Amino-4,5-dihydro-N-(4-trifluoromethylphenyl)-1H-imidazole-1-carboxamide Monohydrochloride], in that order: 5.0 h, -98 beats/min, 50 mm Hg, 70% and 35.5 mg/kg.
Turning to `NC1=NCCN1C(=O)Nc1ccc(Cl)c(Cl)c1` [Example 8, 2-Amino-N-(3,4-dichlorophenyl)-4,5-dihydro-1H-imidazole-1carboxamide Monohydrochloride Monohydrate, Compound with 1,1'Oxybisethane (12:1)], in data set [1], the Duration amounted to 2.0 h, the “Effect on heart rate” value is recorded as -68 beats/min and the “Max. decr. in MAP” value turned out to be 44 mm Hg. In data set [2], the inhibition in vivo at 20 mg/kg turned out to be 96% and the median effective dose (ED50) was found to be 24.8 mg/kg. Moreover, in data set [3], the sensitivity to heat entry is given as “sensitive to heat”. For the same compound, the “loss of HCl on heating” value in data set [3] (above 50° /vac) was “may lose HCl”.
`NC1=NCCN1C(=O)Nc1ccccc1Cl` [Example 3, 2-Amino-N-(2-chlorophenyl)-4,5-dihydro-1H-imidazole-1-carboxamide Monohydrochloride]: in data set [1], the Duration was determined as 2.0 h, the “Effect on heart rate” value is -77 beats/min and the “Max. decr. in MAP” value amounted to 35 mm Hg. The inhibition in vivo at 20 mg/kg in data set [2] was 82%.
